# Test results from ChEMBL document CHEMBL4819020, “Discovery of [1,2,4]triazolo[1,5-a]pyrimidines derivatives as potential anticancer agents” (Eur J Med Chem, 2021).
# Key:
# MGC-803 [1] = test: Induction of apoptosis in human MGC-803 cells assessed as increase in cleaved caspase 3/9 expression at 0.75 to 3 uM measured after 48 hrs by western blot assay; type: functional, cell-based; details: dose 0.75-3 µM
# MGC-803 [2] = test: Cell cycle arrest in human MGC-803 cells assessed as accumulation of cells in G2/M phase at 0.75 uM measured after 24 hrs by PI staining based flow cytometry assay (reference value: 33.35%); type: functional
# MGC-803 [3] = test: Induction of apoptosis in human MGC-803 cells assessed as viable cells at 3 uM measured after 48 hrs by Annexin V-FITC/PI staining based flow cytometry method (reference value: 92.3 %); type: functional; details: read-out: Activity
# MGC-803 [4] = test: Induction of apoptosis in human MGC-803 cells assessed as early apoptotic cells at 0.75 uM measured after 48 hrs by Annexin V-FITC/PI staining based flow cytometry method (reference value: 0.992 %); type: functional
# MGC-803 [5] = test: Cell cycle arrest in human MGC-803 cells assessed as accumulation of cells in G2/M phase at 3 uM measured after 24 hrs by PI staining based flow cytometry assay (reference value: 33.35%); type: functional
# MGC-803 [6] = test: Induction of apoptosis in human MGC-803 cells assessed as late apoptotic cells at 1.5 uM measured after 48 hrs by Annexin V-FITC/PI staining based flow cytometry method (reference value: 3.10 %); type: functional
# MGC-803 [7] = test: Cell cycle arrest in human MGC-803 cells assessed as accumulation of cells in G0/G1 phase at 0.75 uM measured after 24 hrs by PI staining based flow cytometry assay (reference value: 49.39%); type: functional
# MGC-803 [8] = test: Induction of apoptosis in human MGC-803 cells assessed as necrotic cells at 0.75 uM measured after 48 hrs by Annexin V-FITC/PI staining based flow cytometry method (reference value: 3.60 %); type: functional
# [9] = Toxicity in mouse assessed as effect on kidney at 2 mg/kg, ig measured after 2 weeks by H and E staining based microscopic method; type: organism-based; details: in vivo, po, 336 h
# [10] = Toxicity in mouse assessed as effect on lung at 2 mg/kg, ig measured after 2 weeks by H and E staining based microscopic method; type: organism-based; details: in vivo, po, 336 h
# [11] = Toxicity in mouse assessed by effect on changes in body weight at 2 mg/kg, ig measured after 2 weeks; type: organism-based; details: in vivo, po, 336 h
# MGC-803 [12] = test: Induction of apoptosis in human MGC-803 cells assessed by cell rounding at 0.75 to 3 uM measured after 48 hrs by Hoechst 33342 staining based microscopic method; type: functional; details: dose 0.75-3 µM
smiles,measurement,setting,value
Cc1cc(Nc2ccn(Cc3nc(C)c4ccccc4n3)n2)n2nc(SCc3ccc(Br)cc3)nc2n1,Activity,MGC-803 [1],Dose-Dependent Effect
same,Activity,MGC-803 [2],19.3%
same,viability at 3 µM,MGC-803 [3],28%
same,Activity,MGC-803 [4],2.17%
same,Activity,MGC-803 [5],4.64%
same,Activity,MGC-803 [6],10.4%
same,Activity,MGC-803 [7],56.2%
same,Activity,MGC-803 [8],3.46%
same,Activity,[9],Non-Toxic
same,Activity,[10],Non-Toxic
same,Activity,[11],Non-Toxic
same,Activity,MGC-803 [12],Dose-Dependent Effect
